Data published in US6737383B1, “Herbicidal oxadiazolidines” (priority 1999, dated 2004).

Columns and labels:
bedstraw = experiment: Test B pre/postemergence bedstraw; type: in vivo, Galium aparine
Outline: (§1)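 Herbicidal effect was estimated by eye on a ten-point control scale after plants spent twelve to sixteen days in a greenhouse following soil or foliar treatment. Foliar sprays targeted plants at one to four leaves; all doses were formulated in a non-phytotoxic solvent with surfactant.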

blackgrass = experiment: Test B pre/postemergence blackgrass; type: in vivo, Alopecurus myosuroides
Outline: as §1

surinam grass = experiment: Test B pre/postemergence surinam grass; type: in vivo, Brachiaria decumbens
Outline: as §1

cocklebur = experiment: Test B pre/postemergence cocklebur; type: in vivo, Xanthium strumarium
Outline: as §1

corn = experiment: Test B pre/postemergence corn; type: in vivo, Zea mays
Outline: as §1

crabgrass = experiment: Test B pre/postemergence crabgrass; type: in vivo, Digitaria sanguinalis
Outline: as §1

giant foxtail = experiment: Test B pre/postemergence giant foxtail; type: in vivo, Setaria faberii
Outline: as §1

rape = experiment: Test B pre/postemergence rape; type: in vivo, Brassica napus
Outline: as §1

soybean = experiment: Test B pre/postemergence soybean; type: in vivo, Glycine max
Outline: as §1

sugar beet = experiment: Test B pre/postemergence sugar beet; type: in vivo, Beta vulgaris
Outline: as §1

velvetleaf = experiment: Test B pre/postemergence velvetleaf; type: in vivo, Abutilon theophrasti
Outline: as §1

wheat = experiment: Test B pre/postemergence wheat; type: in vivo, Triticum aestivum
Outline: as §1

purple nutsedge = experiment: Test B pre/postemergence purple nutsedge; type: in vivo, Cyperus rotundus
Outline: as §1

rice = experiment: Test B flood test rice; type: in vivo, Oryza sativa
Outline: (§2)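 Read-out is a visual response score from 0 (no effect) to 10 (complete control), assigned by comparison with untreated controls. Treatment was applied at the 2-leaf stage, and plants stayed in the greenhouse for twelve to sixteen days before scoring.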

smallflower flatsedge = experiment: Test B flood test smallflower flatsedge; type: in vivo, Cyperus difformis
Outline: as §2

duck salad = experiment: Test B flood test duck salad; type: in vivo, Heteranthera limosa
Outline: as §2

bamyardgrass = experiment: Test B flood test barnyardgrass; type: in vivo, Echinochloa crus-galli
Outline: as §2

[1] = Postemergence, Rate 125 g/ha, scale of 0 to 10 where 0 is no effect and 10 is complete control
[2] = Preemergence, Rate 62 g/ha, scale 0 to 10 (0 no effect, 10 complete control)
[3] = Preemergence, Rate 125 g/ha, 0 is no effect, 10 is complete control
[4] = Preemergence, Rate 250 g/ha, scale 0 to 10, 0 is no effect, 10 is complete control
[5] = Preemergence, Rate 500 g/ha, scale 0 to 10 (0 no effect, 10 complete control)
[6] = Rate 62 g/ha, Postemergence, scale of 0 to 10 where 0 is no effect and 10 is complete control
[7] = Rate 250 g/ha, Postemergence, scale 0 to 10, 0 is no effect, 10 is complete control
[8] = Rate 500 g/ha, Postemergence, scale 0 to 10
[9] = Postemergence, Rate 1000 g/ha, scale 0 to 10 (0 no effect, 10 complete control)
[10] = Rate 250 g/ha, Postemergence (flood test), scale 0 to 10, 0 is no effect, 10 is complete control
[11] = Rate 500 g/ha, listed under Postemergence (flood test species), scale 0 to 10
[12] = Rate 2000 g/ha, Postemergence, scale 0 to 10

## Cc1nsc(C)c1-n1c(=O)on(C(=O)N(c2ccc(F)cc2)C(C)C)c1=O [Compound 157]
bedstraw; [1]
  Bedstraw plant response rating: 0
bedstraw; [2]
  Bedstraw plant response rating: 0
bedstraw; [3]
  Bedstraw plant response rating (0 to 10 scale): 0
bedstraw; [4]
  Bedstraw plant response rating: 0
bedstraw; [5]
  Bedstraw plant response rating: 0
bedstraw; [6]
  Bedstraw plant response rating: 0
bedstraw; [7]
  Plant response rating, Bedstraw: 0
blackgrass; [1]
  Blackgrass plant response rating: 0
blackgrass; [2]
  Blackgrass plant response rating: 0
blackgrass; [3]
  Blackgrass plant response rating (0 to 10 scale): 0
blackgrass; [4]
  Blackgrass plant response rating: 5
blackgrass; [5]
  Blackgrass plant response rating: 5
blackgrass; [6]
  Blackgrass plant response rating: 0
blackgrass; [7]
  Plant response rating, Blackgrass: 0
blackgrass; [8]
  Blackgrass plant response rating: 2
Surinam grass; [1]
  B. signalgrass plant response rating: 0
Surinam grass; [2]
  B. signalgrass plant response rating: 0
Surinam grass; [3]
  B. signalgrass plant response rating (0 to 10 scale): 0
Surinam grass; [4]
  B. signalgrass plant response rating: 0
Surinam grass; [5]
  B. signalgrass plant response rating: 0
Surinam grass; [6]
  B. signalgrass plant response rating: 0
Surinam grass; [7]
  Plant response rating, B. signalgrass: 0
Surinam grass; Rate 500 g/ha, Postemergence, scale 0 to 10, 0 no effect, 10 complete control
  B. signalgrass plant response rating: 0
cocklebur; [1]
  Cocklebur plant response rating: 0
cocklebur; [2]
  Cocklebur plant response rating: 0
cocklebur; [3]
  Cocklebur plant response rating (0 to 10 scale): 0
cocklebur; [4]
  Cocklebur plant response rating: 0
cocklebur; [5]
  Cocklebur plant response rating: 0
cocklebur; [6]
  Cocklebur plant response rating: 0
cocklebur; [7]
  Plant response rating, Cocklebur: 0
cocklebur; [8]
  Cocklebur plant response rating: 0
corn; [1]
  Corn plant response rating: 0
corn; [2]
  Corn plant response rating: 0
corn; [3]
  Corn plant response rating (0 to 10 scale): 0
corn; [4]
  Corn plant response rating: 0
corn; [5]
  Corn plant response rating: 0
corn; [6]
  Corn plant response rating: 0
corn; [7]
  Plant response rating, Corn: 0
corn; [8]
  Corn plant response rating: 0
crabgrass; [1]
  Crabgrass plant response rating: 0
crabgrass; [2]
  Crabgrass plant response rating: 0
crabgrass; [3]
  Crabgrass plant response rating (0 to 10 scale): 2
crabgrass; [4]
  Crabgrass plant response rating: 4
crabgrass; [5]
  Crabgrass plant response rating: 6
crabgrass; [6]
  Crabgrass plant response rating: 0
crabgrass; [7]
  Plant response rating, Crabgrass: 2
crabgrass; [8]
  Crabgrass plant response rating: 7
Giant foxtail; [1]
  Giant foxtail plant response rating: 1
Giant foxtail; [2]
  Giant foxtail plant response rating: 3
Giant foxtail; [3]
  Giant foxtail plant response rating (0 to 10 scale): 6
Giant foxtail; [4]
  Giant foxtail plant response rating: 8
Giant foxtail; [5]
  Giant foxtail plant response rating: 10
Giant foxtail; [6]
  Giant foxtail plant response rating: 0
Giant foxtail; [7]
  Plant response rating, Giant foxtail: 4
Giant foxtail; [8]
  Giant foxtail plant response rating: 4
rape; [1]
  Rape plant response rating: 0
rape; [2]
  Rape plant response rating: 0
rape; [3]
  Rape plant response rating (0 to 10 scale): 0
rape; [4]
  Rape plant response rating: 0
rape; [5]
  Rape plant response rating: 0
rape; [6]
  Rape plant response rating: 0
rape; [7]
  Plant response rating, Rape: 0
rape; [8]
  Rape plant response rating: 0
soybean; [1]
  Soybean plant response rating: 1
soybean; [2]
  Soybean plant response rating: 0
soybean; [3]
  Soybean plant response rating (0 to 10 scale): 0
soybean; [4]
  Soybean plant response rating: 0
soybean; [5]
  Soybean plant response rating: 0
soybean; [6]
  Soybean plant response rating: 0
soybean; [7]
  Plant response rating, Soybean: 1
soybean; [8]
  Soybean plant response rating: 2
Sugar beet; [1]
  Sugarbeets plant response rating: 0
Sugar beet; [2]
  Sugarbeets plant response rating: 0
Sugar beet; [3]
  Sugarbeets plant response rating (0 to 10 scale): 0
Sugar beet; [4]
  Sugarbeets plant response rating: 0
Sugar beet; [5]
  Sugarbeets plant response rating: 0
Sugar beet; [6]
  Sugarbeets plant response rating: 0
Sugar beet; [7]
  Plant response rating, Sugarbeets: 0
Sugar beet; [8]
  Sugarbeets plant response rating: 0
velvetleaf; [2]
  Velvetleaf plant response rating: 0
velvetleaf; [3]
  Velvetleaf plant response rating (0 to 10 scale): 0
velvetleaf; [4]
  Velvetleaf plant response rating: 0
velvetleaf; [5]
  Velvetleaf plant response rating: 0
velvetleaf; [7]
  Plant response rating, Velvetleaf: 0
velvetleaf; [8]
  Velvetleaf plant response rating: 0
wheat; [2]
  Wheat plant response rating: 0
wheat; [3]
  Wheat plant response rating (0 to 10 scale): 0
wheat; [4]
  Wheat plant response rating: 0
wheat; [5]
  Wheat plant response rating: 0
wheat; [7]
  Plant response rating, Wheat: 0
wheat; [8]
  Wheat plant response rating: 0
Purple nutsedge; [1]
  Nutsedge plant response rating: 0
Purple nutsedge; [2]
  Nutsedge plant response rating: 0
Purple nutsedge; [3]
  Nutsedge plant response rating (0 to 10 scale): 0
Purple nutsedge; [4]
  Nutsedge plant response rating: 0
Purple nutsedge; [5]
  Nutsedge plant response rating: 0
Purple nutsedge; [6]
  Nutsedge plant response rating: 0
Purple nutsedge; [7]
  Plant response rating, Nutsedge: 0
Purple nutsedge; [8]
  Nutsedge plant response rating: 0
rice; [9]
  Rice plant response rating: 0
rice; [10]
  Plant response rating, Rice: 0
rice; [11]
  Rice plant response rating: 0
rice; [12]
  Rice plant response rating: 0
Smallflower flatsedge; [9]
  S. Flatsedge plant response rating: 0
Smallflower flatsedge; [10]
  Plant response rating, S. Flatsedge: 0
Smallflower flatsedge; [11]
  S. Flatsedge plant response rating: 0
Smallflower flatsedge; [12]
  S. Flatsedge plant response rating: 0
Duck salad; [9]
  Ducksalad plant response rating: 0
Duck salad; [10]
  Plant response rating, Ducksalad: 0
Duck salad; [11]
  Ducksalad plant response rating: 0
Duck salad; [12]
  Ducksalad plant response rating: 0
bamyardgrass; [9]
  Barnyardgrass plant response rating: 0
bamyardgrass; [10]
  Plant response rating, Barnyardgrass: 0
bamyardgrass; [11]
  Barnyardgrass plant response rating: 0
bamyardgrass; [12]
  Barnyardgrass plant response rating: 0
